The numbers were not newly measured in patent US12090029B2, “Devices and methods for enhancing immunogenicity to intradermal vaccination” (VERSITECH LIMITED, priority 2016, dated 2024), which cites them from elsewhere.

One data set relates to influenza vaccination. To be noted: elderly subjects.
In data set [1] the test system is vaccine influenza strains. To be noted: young healthy individuals, topical application before intradermal trivalent influenza vaccine (Hung et al., 2016).
In another data set the test system is influenza vaccine. Particulars: mouse model, imiquimod cream applied (Zhang et al., 2014).

For `CC(C)Cn1cnc2c(N)nc3ccccc3c21` [imiquimod], the “hospitalizations for influenza or pneumonia” value with influenza vaccination (relative to a vaccine-only group) is recorded as “fewer”. Moreover, in the data set on influenza vaccination (sustained to 1 year, relative to a vaccine-only group), the seroconversion rate entry was “earlier and better”. In the data set on influenza vaccination (topical pre-treatment, relative to a vaccine-only group (Hung et al., 2014)), the “immunogenicity of influenza vaccination” value is “significantly expedited, augmented, and prolonged”. Besides, in data set [1], the “immunogenicity against the non-vaccine strains” value is “increased” and the “immunogenicity against the vaccine influenza strains” value is reported as “significantly improved”. Also, the “immunogenicity of influenza vaccine” value with influenza vaccine is on record as “enhanced”.
